From PubChem BioAssay AID256 (DTP/NCI, 2004)
Values joined by “and” are separate entries in the source; they are usually repeats but may differ in a detail not shown here. Equal entries are not always repeated. Toxic doses and inconclusive results are not listed.

Test system: CD2F1 mice, L1210 leukemia ip, survival T/C
Test: NCI In Vivo Anticancer Drug Screen. Data for tumor model L1210 Leukemia (intraperitoneal) in CD2F1 (CDF1) mice
Settings: higher = longer survival
In short: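 Vehicle-treated tumor-bearing mice served as controls (C) for compound-treated mice (T). Reported figure is T divided by C.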

[1] = endpoint: mean survival time, dose: 100.0 mg/kg/injection, schedule: Q01DX009 (ip), vehicle: saline with Tween-80
[2] = endpoint: mean survival time, dose: 200.0 mg/kg/injection, schedule: Q01DX009 (ip), vehicle: saline with Tween-80
[3] = endpoint: mean survival time, dose: 400.0 mg/kg/injection, schedule: Q01DX009 (ip), vehicle: saline with Tween-80
[4] = endpoint: mean survival time, dose: 100.0 mg/kg/injection, schedule: Q01DX009 (ip), vehicle: saline
[5] = endpoint: mean survival time, dose: 200.0 mg/kg/injection, schedule: Q01DX009 (ip), vehicle: saline
[6] = endpoint: mean survival time, dose: 50.0 mg/kg/injection, schedule: Q01DX009 (ip), vehicle: saline with Tween-80

With `CN[C@H]1CCc2cc(OC)c(OC)c(OC)c2-c2ccc(OC)c(=O)cc21` the T/C (endpoint: mean survival time, dose: 0.63 mg/kg/injection, schedule: Q01DX009 (ip), vehicle: saline) was 113 % of control and 105 % of control, the T/C (endpoint: mean survival time, dose: 0.63 mg/kg/injection, schedule: Q01DX009 (ip), vehicle: water) was 97 % of control and 101 % of control and the T/C (endpoint: mean survival time, dose: 1.25 mg/kg/injection, schedule: Q01DX009 (ip), vehicle: saline) was 113 % of control and 116 % of control. The T/C (endpoint: mean survival time, dose: 1.25 mg/kg/injection, schedule: Q01DX009 (ip), vehicle: water) was 118 % of control and 108 % of control, the T/C (endpoint: mean survival time, dose: 2.5 mg/kg/injection, schedule: Q01DX007 (ip), vehicle: saline) was 121 % of control and the T/C (endpoint: mean survival time, dose: 2.5 mg/kg/injection, schedule: Q01DX009 (ip), vehicle: saline) was 121 % of control and 123 % of control and 124 % of control. For the same compound, the T/C (endpoint: mean survival time, dose: 2.5 mg/kg/injection, schedule: Q01DX009 (ip), vehicle: water) was 116 % of control and 107 % of control, the T/C (endpoint: mean survival time, dose: 2.5 mg/kg/injection, schedule: Q03DX003 (ip), vehicle: saline) was 102 % of control and the T/C (endpoint: mean survival time, dose: 2.5 mg/kg/injection, schedule: Q04DX003 (ip), vehicle: saline) was 95 % of control. For the same compound, the T/C (endpoint: mean survival time, dose: 5.0 mg/kg/injection, schedule: Q01DX007 (ip), vehicle: saline) was 122 % of control, the T/C (endpoint: mean survival time, dose: 5.0 mg/kg/injection, schedule: Q01DX009 (ip), vehicle: saline) was 120 % of control and the T/C (endpoint: mean survival time, dose: 5.0 mg/kg/injection, schedule: Q01DX009 (ip), vehicle: water) was 118 % of control. The T/C (endpoint: mean survival time, dose: 5.0 mg/kg/injection, schedule: Q03DX003 (ip), vehicle: saline) was 115 % of control, the T/C (endpoint: mean survival time, dose: 5.0 mg/kg/injection, schedule: Q04DX003 (ip), vehicle: saline) was 105 % of control and the T/C (endpoint: mean survival time, dose: 10.0 mg/kg/injection, schedule: Q01DX009 (ip), vehicle: water) was 124 % of control and 108 % of control. The T/C (endpoint: mean survival time, dose: 10.0 mg/kg/injection, schedule: Q04DX003 (ip), vehicle: saline) was 101 % of control, the T/C (endpoint: median survival time, dose: 0.63 mg/kg/injection, schedule: Q01DX009 (ip), vehicle: saline) was 114 % of control and 100 % of control and the T/C (endpoint: median survival time, dose: 1.25 mg/kg/injection, schedule: Q01DX009 (ip), vehicle: saline) was 114 % of control and 100 % of control. The T/C (endpoint: median survival time, dose: 2.5 mg/kg/injection, schedule: Q01DX009 (ip), vehicle: saline) was 121 % of control and 111 % of control and the T/C (endpoint: median survival time, dose: 5.0 mg/kg/injection, schedule: Q01DX009 (ip), vehicle: saline) was 150 % of control.

`COc1ccc(C=Nc2ccccc2)cc1` was tested, and the T/C [1] was 95 % of control, the T/C [2] was 89 % of control and the T/C [3] was 89 % of control.

For `FC(F)(F)c1nc2nccnc2[nH]1`, the T/C (endpoint: mean survival time, dose: 50.0 mg/kg/injection, schedule: Q01DX009 (ip), vehicle: saline) was 95 % of control, the T/C [4] was 91 % of control and the T/C [5] was 93 % of control.

In the case of `Fc1ccc2ccnnc2c1`, the T/C (endpoint: mean survival time, dose: 100.0 mg/kg/injection, schedule: Q01DX001 (ip), vehicle: other) is reported as 103 % of control and the T/C (endpoint: mean survival time, dose: 200.0 mg/kg/injection, schedule: Q01DX001 (ip), vehicle: other) is reported as 95 % of control.

In the case of `COc1cc(OC)c(NC(=O)Oc2ccc3ccccc3c2)cc1Cl`, the T/C [6] is reported as 94 % of control, the T/C [1] is reported as 94 % of control and the T/C [2] is reported as 97 % of control.

`Nc1cc(Cl)c(N)c(N)n1` was tested, and the T/C [1] was 100 % of control and the T/C [2] was 91 % of control.

With `CCN(CC)CCNc1ncnc(N)c1C(=C(C)C)c1ccc(Cl)cc1` the T/C [6] was 96 % of control, the T/C (endpoint: mean survival time, dose: 100.0 mg/kg/injection, schedule: Q01DX001 (ip), vehicle: saline with Tween-80) was 94 % of control and the T/C [1] was 96 % of control. For the same compound, the T/C (endpoint: mean survival time, dose: 200.0 mg/kg/injection, schedule: Q01DX001 (ip), vehicle: saline with Tween-80) was 86 % of control and the T/C [2] was 87 % of control.

In the case of `NC(N)=N/N=C\c1ccc(/C=N/N=C(N)N)cc1`, the T/C (endpoint: mean survival time, dose: 3.0 mg/kg/injection, schedule: Q01DX010 (ip), vehicle: saline) is reported as 102 % of control, the T/C (endpoint: mean survival time, dose: 5.0 mg/kg/injection, schedule: Q01DX010 (ip), vehicle: saline) is reported as 106 % of control and the T/C (endpoint: mean survival time, dose: 8.0 mg/kg/injection, schedule: Q01DX010 (ip), vehicle: saline) is reported as 110 % of control. For the same compound, the T/C (endpoint: mean survival time, dose: 12.0 mg/kg/injection, schedule: Q01DX010 (ip), vehicle: saline) was 112 % of control.

In the case of `CC1=NN(c2ccccc2)C(=O)C1`, the T/C [1] is reported as 98 % of control, the T/C (endpoint: mean survival time, dose: 100.0 mg/kg/injection, schedule: Q04DX003 (ip), vehicle: saline with Tween-80) is reported as 94 % of control and the T/C [2] is reported as 102 % of control. The T/C (endpoint: mean survival time, dose: 200.0 mg/kg/injection, schedule: Q04DX003 (ip), vehicle: saline with Tween-80) was 92 % of control, the T/C [3] was 96 % of control and the T/C (endpoint: mean survival time, dose: 400.0 mg/kg/injection, schedule: Q04DX003 (ip), vehicle: saline with Tween-80) was 86 % of control.

`O=[N+]([O-])c1ccc(S(=O)(=O)F)c(Cl)c1` was tested, and the T/C [1] was 100 % of control, the T/C (endpoint: mean survival time, dose: 100.0 mg/kg/injection, schedule: Q04DX003 (ip), vehicle: saline) was 100 % of control and the T/C [2] was 100 % of control. The T/C (endpoint: mean survival time, dose: 200.0 mg/kg/injection, schedule: Q04DX003 (ip), vehicle: saline) was 101 % of control, the T/C [3] was 100 % of control and the T/C (endpoint: mean survival time, dose: 400.0 mg/kg/injection, schedule: Q04DX003 (ip), vehicle: saline) was 101 % of control.

For `Oc1ccccc1/C=N\Nc1ccccc1`, the T/C [4] was 98 % of control, the T/C [5] was 98 % of control and the T/C (endpoint: mean survival time, dose: 400.0 mg/kg/injection, schedule: Q01DX009 (ip), vehicle: saline) was 102 % of control.
